Laboratory results published in PubChem BioAssay AID1918946 (Molecular Pharmacology Branch, DTP, NCI, 2023).
Several values for one entry are separate records, joined by “and”; a condition that tells them apart may be missing. Equal values may be shown once.

System: 885512-296-R-J2-PDC complex spheroid viability
Assay: Anticancer human tumor 885512-296-R-J2-PDC patient-derived breast carcinoma cell line growth inhibition
Conditions: for viability, T/C: stronger effect = lower value
How it was run: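 Multicellular complex spheroids of tumor cells with human endothelial cells (HUVEC) and mesenchymal stem cells; the LSD1 inhibitor iadademstat was combined with standard-of-care or investigational agents. Top concentration at or near clinical Cmax, half-log dilutions; final DMSO ≤0.25%.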

[1] = curve of first compound, second compound 0.1 µM
[2] = curve of first compound, second compound 0.316 µM
[3] = curve of first compound, second compound 1 µM
[4] = curve of first compound, second compound 3.16 µM
[5] = curve of first compound, second compound 10 µM
[6] = second compound 0.1 µM, first compound 0.00949 µM
[7] = second compound 0.1 µM, first compound 0.03 µM
[8] = second compound 0.1 µM, first compound 0.0949 µM
[9] = second compound 0.1 µM, first compound 0.3 µM
[10] = second compound 0.1 µM, first compound 0.949 µM
[11] = second compound 0.1 µM, first compound 3 µM
[12] = second compound 0.316 µM, first compound 0.00949 µM
[13] = second compound 0.316 µM, first compound 0.03 µM
[14] = second compound 0.316 µM, first compound 0.0949 µM
[15] = second compound 0.316 µM, first compound 0.3 µM
[16] = second compound 0.316 µM, first compound 0.949 µM
[17] = second compound 0.316 µM, first compound 3 µM
[18] = second compound 1 µM, first compound 0.00949 µM
[19] = second compound 1 µM, first compound 0.03 µM
[20] = second compound 1 µM, first compound 0.0949 µM
[21] = second compound 1 µM, first compound 0.3 µM
[22] = second compound 1 µM, first compound 0.949 µM
[23] = second compound 1 µM, first compound 3 µM
[24] = second compound 3.16 µM, first compound 0.00949 µM
[25] = second compound 3.16 µM, first compound 0.03 µM
[26] = second compound 3.16 µM, first compound 0.0949 µM
[27] = second compound 3.16 µM, first compound 0.3 µM
[28] = second compound 3.16 µM, first compound 0.949 µM
[29] = second compound 3.16 µM, first compound 3 µM
[30] = second compound 10 µM, first compound 0.00949 µM
[31] = second compound 10 µM, first compound 0.03 µM
[32] = second compound 10 µM, first compound 0.0949 µM
[33] = second compound 10 µM, first compound 0.3 µM
[34] = second compound 10 µM, first compound 0.949 µM
[35] = second compound 10 µM, first compound 3 µM
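Note: spheroids exposed to agents for 7 days before viability read.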

For `O=C(C=Cc1cccc(S(=O)(=O)Nc2ccccc2)c1)NO` + NC1CCC(NC2CC2c2ccccc2)CC1, the IC50 [1] was 0.0746 µM, the IC50 [2] was 0.0845 µM and the IC50 [3] was 0.0847 µM. It also gave an IC50 [4] of 0.0707 µM, an IC50 [5] of 0.05 µM and a viability, T/C [6] of 104%. It also gave a viability, T/C [7] of 80.2%, a viability, T/C [8] of 42.8% and a viability, T/C [9] of 19.8%. It also gave a viability, T/C [10] of 13.6%, a viability, T/C [11] of 17.1% and a viability, T/C [12] of 112%. It also gave a viability, T/C [13] of 87.6%, a viability, T/C [14] of 45.6% and a viability, T/C [15] of 22.4%. For the same compound, the viability, T/C [16] was 15.7%, the viability, T/C [17] was 14.6% and the viability, T/C [18] was 108%. It also gave a viability, T/C [19] of 84.4%, a viability, T/C [20] of 47.1% and a viability, T/C [21] of 19.9%. It also gave a viability, T/C [22] of 12.3%, a viability, T/C [23] of 11.9% and a viability, T/C [24] of 90.2%. For the same compound, the viability, T/C [25] was 69.2%, the viability, T/C [26] was 43.8% and the viability, T/C [27] was 24.1%. It also gave a viability, T/C [28] of 12.7%, a viability, T/C [29] of 12.7% and a viability, T/C [30] of 90.8%. The viability, T/C [31] was 65.5%, the viability, T/C [32] was 30.6% and the viability, T/C [33] was 17.3%. For the same compound, the viability, T/C [34] was 8.4% and the viability, T/C [35] was 16.5%.
`Nc1ccccc1NC(=O)c1ccc(CNC(=O)OCc2cccnc2)cc1` + NC1CCC(NC2CC2c2ccccc2)CC1 showed an IC50 [1] of 0.106 µM, an IC50 [2] of 0.108 µM and an IC50 [3] of 0.123 µM. The IC50 [4] was 0.124 µM, the IC50 [5] was 0.0907 µM and the viability, T/C [6] was 123%. For the same compound, the viability, T/C [7] was 111%, the viability, T/C [8] was 50.6% and the viability, T/C [9] was 25.3%. It also gave a viability, T/C [10] of 16.7%, a viability, T/C [11] of 7.75% and a viability, T/C [12] of 115%. For the same compound, the viability, T/C [13] was 110%, the viability, T/C [14] was 51.7% and the viability, T/C [15] was 24.6%. It also gave a viability, T/C [16] of 15.5%, a viability, T/C [17] of 8.27% and a viability, T/C [18] of 116%. For the same compound, the viability, T/C [19] was 106%, the viability, T/C [20] was 52.9% and the viability, T/C [21] was 28.6%. It also gave a viability, T/C [22] of 11.4%, a viability, T/C [23] of 6.94% and a viability, T/C [24] of 123%. The viability, T/C [25] was 105%, the viability, T/C [26] was 54.1% and the viability, T/C [27] was 26.6%. For the same compound, the viability, T/C [28] was 12.5%, the viability, T/C [29] was 4.09% and the viability, T/C [30] was 107%. The viability, T/C [31] was 89.8%, the viability, T/C [32] was 46.5% and the viability, T/C [33] was 20.5%. The viability, T/C [34] was 9.82% and the viability, T/C [35] was 4.99%.
With `Nc1ccccc1NC(=O)c1ccc(CNC(=O)OCc2cccnc2)cc1` the viability, T/C (compound 0.00949 µM) was 92.7% and 64.7%, the viability, T/C (compound 0.03 µM) was 63.2% and 46.1% and the viability, T/C (compound 0.0949 µM) was 44.3% and 33.1%. For the same compound, the viability, T/C (compound 0.3 µM) was 22.8% and 16.8%, the viability, T/C (compound 0.949 µM) was 12.9% and 6.76% and the viability, T/C (compound 3 µM) was 10.3% and 0.3%. For the same compound, the IC50 (curve of compound) was 0.062 µM and 0.0252 µM.
In the case of `NS(=O)(=O)OCC1CC(n2ccc3c(NC4CCc5ccccc54)ncnc32)CC1O` (configuration not stated) + NC1CCC(NC2CC2c2ccccc2)CC1, the IC50 [1] is reported as < 0.00949 µM, the IC50 [2] is reported as < 0.00949 µM and the IC50 [3] is reported as < 0.00949 µM. The IC50 [4] was < 0.00949 µM, the IC50 [5] was < 0.00949 µM and the viability, T/C [6] was 16.7%. For the same compound, the viability, T/C [7] was 7.98%, the viability, T/C [8] was 5.83% and the viability, T/C [9] was 2.1%. It also gave a viability, T/C [10] of 8.58%, a viability, T/C [11] of 9.25% and a viability, T/C [12] of 12.9%. It also gave a viability, T/C [13] of 8.7%, a viability, T/C [14] of 7.27% and a viability, T/C [15] of 5.01%. The viability, T/C [16] was 6.94%, the viability, T/C [17] was 6.92% and the viability, T/C [18] was 16.3%. The viability, T/C [19] was 8.77%, the viability, T/C [20] was 4.53% and the viability, T/C [21] was 4.31%. For the same compound, the viability, T/C [22] was 1.23%, the viability, T/C [23] was 6.71% and the viability, T/C [24] was 14.2%. The viability, T/C [25] was 8.91%, the viability, T/C [26] was 3.64% and the viability, T/C [27] was 1.52%. It also gave a viability, T/C [28] of 4.11%, a viability, T/C [29] of 3.57% and a viability, T/C [30] of 10.2%. For the same compound, the viability, T/C [31] was 5.83%, the viability, T/C [32] was 2.78% and the viability, T/C [33] was 1.64%. The viability, T/C [34] was 1.08% and the viability, T/C [35] was 0.82%.
For `O=C(c1cc(Cc2n[nH]c(=O)c3ccccc23)ccc1F)N1CCN(C(=O)C2CC2)CC1` + NC1CCC(NC2CC2c2ccccc2)CC1, the IC50 [1] was 0.63 µM, the IC50 [2] was 0.519 µM and the IC50 [3] was 0.563 µM. For the same compound, the IC50 [4] was 0.583 µM, the IC50 [5] was 0.335 µM and the viability, T/C (second compound 0.1 µM, first compound 0.0316 µM) was 104%. The viability, T/C (second compound 0.1 µM, first compound 0.1 µM) was 113%, the viability, T/C (second compound 0.1 µM, first compound 0.316 µM) was 78.7% and the viability, T/C (second compound 0.1 µM, first compound 1 µM) was 31.2%. For the same compound, the viability, T/C (second compound 0.1 µM, first compound 3.16 µM) was 10.8%, the viability, T/C (second compound 0.1 µM, first compound 10 µM) was 12.9% and the viability, T/C (second compound 0.316 µM, first compound 0.0316 µM) was 111%. For the same compound, the viability, T/C (second compound 0.316 µM, first compound 0.1 µM) was 98.2%, the viability, T/C (second compound 0.316 µM, first compound 0.316 µM) was 72.1% and the viability, T/C (second compound 0.316 µM, first compound 1 µM) was 21.8%. It also gave a viability, T/C (second compound 0.316 µM, first compound 3.16 µM) of 8.68%, a viability, T/C (second compound 0.316 µM, first compound 10 µM) of 10.8% and a viability, T/C (second compound 1 µM, first compound 0.0316 µM) of 84.7%. For the same compound, the viability, T/C (second compound 1 µM, first compound 0.1 µM) was 101%, the viability, T/C (second compound 1 µM, first compound 0.316 µM) was 67.5% and the viability, T/C (second compound 1 µM, first compound 1 µM) was 30.7%. It also gave a viability, T/C (second compound 1 µM, first compound 3.16 µM) of 10.9%, a viability, T/C (second compound 1 µM, first compound 10 µM) of 7.07% and a viability, T/C (second compound 3.16 µM, first compound 0.0316 µM) of 100%. For the same compound, the viability, T/C (second compound 3.16 µM, first compound 0.1 µM) was 98.8%, the viability, T/C (second compound 3.16 µM, first compound 0.316 µM) was 75.5% and the viability, T/C (second compound 3.16 µM, first compound 1 µM) was 27.5%. For the same compound, the viability, T/C (second compound 3.16 µM, first compound 3.16 µM) was 7.3%, the viability, T/C (second compound 3.16 µM, first compound 10 µM) was 5.31% and the viability, T/C (second compound 10 µM, first compound 0.0316 µM) was 96.1%. The viability, T/C (second compound 10 µM, first compound 0.1 µM) was 74.6%, the viability, T/C (second compound 10 µM, first compound 0.316 µM) was 53.7% and the viability, T/C (second compound 10 µM, first compound 1 µM) was 26.1%. The viability, T/C (second compound 10 µM, first compound 3.16 µM) was 7.89% and the viability, T/C (second compound 10 µM, first compound 10 µM) was 3.97%.
`Nc1ccccc1NC(=O)c1ccc(CNC(=O)OCc2cccnc2)cc1` + NC1CC1c1ccc(-c2cccc(O)c2)cc1 gave an IC50 [1] of 0.0482 µM, an IC50 [2] of 0.0504 µM and an IC50 [3] of 0.0419 µM. The IC50 [4] was 0.0431 µM, the IC50 [5] was 0.0239 µM and the viability, T/C [6] was 99.3%. It also gave a viability, T/C [7] of 63.1%, a viability, T/C [8] of 30.5% and a viability, T/C [9] of 17.5%. It also gave a viability, T/C [10] of 6.69%, a viability, T/C [11] of 0.26% and a viability, T/C [12] of 104%. It also gave a viability, T/C [13] of 61.7%, a viability, T/C [14] of 37.2% and a viability, T/C [15] of 12.3%. It also gave a viability, T/C [16] of 5.8%, a viability, T/C [17] of 0.31% and a viability, T/C [18] of 102%. It also gave a viability, T/C [19] of 53.8%, a viability, T/C [20] of 35.2% and a viability, T/C [21] of 15%. It also gave a viability, T/C [22] of 5.26%, a viability, T/C [23] of 0.29% and a viability, T/C [24] of 94.2%. The viability, T/C [25] was 57.9%, the viability, T/C [26] was 32.8% and the viability, T/C [27] was 12.7%. For the same compound, the viability, T/C [28] was 5.2%, the viability, T/C [29] was 0.22% and the viability, T/C [30] was 65.8%. It also gave a viability, T/C [31] of 45.7%, a viability, T/C [32] of 27.9% and a viability, T/C [33] of 12.9%. It also gave a viability, T/C [34] of 4.05% and a viability, T/C [35] of 0.22%.
